20 compounds from US10160747B2, “Compounds and methods for kinase modulation, and indications therefor” (Plexxikon Inc., priority 2016, dated 2018) can be followed below.

The subject of assay [1] is MOLM-14 F691L (endogenous FLT3 ITD and transfected FLT3 F691L). Description: MOLM-14 F691L cell proliferation assay (CellTiter-Glo). In kind it is cell-based. The note with it: Homo sapiens, MOLM-14, 72 h; 3 d growth, GMean. In a few lines:
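MOLM-14 derivatives carrying D835Y or F691L, selected under escalating AC220, were seeded at 1×10^4 cells/well and exposed to an 8-point 1:3 compound series (1 to 0.00046 μM, 0.2% DMSO final) for three days at 37° C., 5% CO2. CellTiter-Glo luminescence (ATP content) versus concentration gave IC50.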

In assay [2] the target is T1, FLT3-D835Y (Homo sapiens, UniProt P36888, D835Y).
T1 construct: purchased Invitrogen PV3967
T1 sequence (P36888 27-993 D835Y): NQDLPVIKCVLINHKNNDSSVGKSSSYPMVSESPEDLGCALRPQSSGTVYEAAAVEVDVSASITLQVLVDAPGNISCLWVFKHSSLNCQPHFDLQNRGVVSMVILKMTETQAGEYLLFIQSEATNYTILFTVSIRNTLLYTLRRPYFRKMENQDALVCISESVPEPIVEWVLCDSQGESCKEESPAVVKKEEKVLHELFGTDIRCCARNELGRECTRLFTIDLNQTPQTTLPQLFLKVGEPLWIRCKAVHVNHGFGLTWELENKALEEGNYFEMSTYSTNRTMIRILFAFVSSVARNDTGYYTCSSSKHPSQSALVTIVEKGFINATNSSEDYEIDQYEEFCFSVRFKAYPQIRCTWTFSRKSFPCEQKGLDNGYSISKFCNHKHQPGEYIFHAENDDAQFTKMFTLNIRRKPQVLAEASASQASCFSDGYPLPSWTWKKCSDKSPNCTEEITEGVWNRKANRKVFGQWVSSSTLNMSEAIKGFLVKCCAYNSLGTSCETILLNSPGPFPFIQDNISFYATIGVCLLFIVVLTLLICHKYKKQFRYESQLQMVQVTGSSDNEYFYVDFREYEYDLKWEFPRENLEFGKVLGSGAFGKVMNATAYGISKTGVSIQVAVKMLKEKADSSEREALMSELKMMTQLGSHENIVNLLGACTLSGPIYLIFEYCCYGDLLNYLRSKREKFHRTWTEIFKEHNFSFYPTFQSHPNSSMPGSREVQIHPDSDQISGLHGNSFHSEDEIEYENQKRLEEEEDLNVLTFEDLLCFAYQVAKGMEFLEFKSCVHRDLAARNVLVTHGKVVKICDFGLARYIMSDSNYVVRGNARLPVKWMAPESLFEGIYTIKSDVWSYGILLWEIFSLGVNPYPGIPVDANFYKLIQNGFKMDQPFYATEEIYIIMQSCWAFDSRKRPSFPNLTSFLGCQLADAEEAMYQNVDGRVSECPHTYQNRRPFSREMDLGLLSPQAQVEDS
Description: FLT3-D835Y recombinant enzyme kinase assay (AlphaScreen). The settings on record: 8 pt, GMean. In kind it is biochemical. In a few lines: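 IC50 values are derived from reduced AlphaScreen signal as inhibitors block tyrosine phosphorylation of a biotinylated poly(Glu4-Tyr) peptide (30 nM) by recombinant kinase. FLT3 variants are run at 10 μM ATP, c-KIT at 100 μM.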

Turning to `O=C(Cc1ccc(-c2cnc(Nc3cnn(C(F)F)c3)nc2)cc1)Nc1cncc(C(F)(F)F)c1` [Compound P-0209, 2-[4-[2-[[1-(difluoromethyl)pyrazol-4-yl]amino]pyrimidin-5-yl]phenyl]-N-[5-(trifluoromethyl)-3-pyridyl]acetamide], the IC50 in assay [1] and in assay [2] was 0.0001 to 10 µM in each case.

With `O=C(Cc1ccc(-c2cnc(Nc3cnn(C4CC4)c3)nc2)cc1)Nc1ccc(C(F)(F)F)nc1` [Compound P-0235, 2-[4-[2-[(1-cyclopropylpyrazol-4-yl)amino]pyrimidin-5-yl]phenyl]-N-[6-(trifluoromethyl)-3-pyridyl]acetamide], the IC50 in assay [1] and in assay [2] was 0.0001 to 10 µM in each case.

Turning to `CCOc1n[nH]c2ncc(-c3ccc(CC(=O)Nc4cnc(C)c(C(F)(F)F)c4)cc3)cc12` [Compound P-0217, 2-[4-(3-ethoxy-1H-pyrazolo[3,4-b]pyridin-5-yl)phenyl]-N-[6-methyl-5-(trifluoromethyl)-3-pyridyl]acetamide], the IC50 in assay [1] and in assay [2] was 0.0001 to 10 µM each time.

`O=C(Cc1ccc(-c2cnc(Nc3cnn(C4CC4)c3)nc2)cc1F)Nc1ccc(C(F)(F)F)nc1` [Compound P-0242, 2-[4-[2-[(1-cyclopropylpyrazol-4-yl)amino]pyrimidin-5-yl]-2-fluoro-phenyl]-N-[6-(trifluoromethyl)-3-pyridyl]acetamide]: the IC50 in assay [1] and in assay [2] was 0.0001 to 10 µM throughout.

In the case of `CCn1cc(Nc2ncc(-c3cc(F)c(CC(=O)Nc4cnc(OC)c(C(F)(F)F)c4)cc3F)cn2)cn1` [Compound P-0247, 2-[4-[2-[(1-ethylpyrazol-4-yl)amino]pyrimidin-5-yl]-2,5-difluoro-phenyl]-N-[6-methoxy-5-(trifluoromethyl)-3-pyridyl]acetamide], the IC50 in assay [1] and in assay [2] was 0.0001 to 10 µM each time.

As for `COc1ncc(NC(=O)Cc2ccc(-c3cnc4[nH]c(-c5ccc(C#N)nc5)cc4c3)cc2F)cc1C(F)(F)F` [Compound P-0011, 2-[4-[2-(6-cyano-3-pyridyl)-1H-pyrrolo[2,3-b]pyridin-5-yl]-2-fluoro-phenyl]-N-[6-methoxy-5-(trifluoromethyl)-3-pyridyl]acetamide], the IC50 in assay [1] and in assay [2] was 0.0001 to 10 µM throughout.

Turning to `CCn1cc(Nc2ncc(-c3ccc(CC(=O)Nc4cc(C(F)(F)F)ccn4)cc3)cn2)cn1` [Compound P-0250, 2-[4-[2-[(1-ethylpyrazol-4-yl)amino]pyrimidin-5-yl]phenyl]-N-[4-(trifluoromethyl)-2-pyridyl]acetamide], the IC50 in assay [1] and in assay [2] was 0.0001 to 10 µM in each case.

For `O=C(Cc1ccc(-c2cnc(Nc3cnn(C4CC4)c3)nc2)cc1F)Nc1cnc(Cl)c(C(F)(F)F)c1` [Compound P-0240, N-[6-chloro-5-(trifluoromethyl)-3-pyridyl]-2-[4-[2-[(1-cyclopropylpyrazol-4-yl)amino]pyrimidin-5-yl]-2-fluoro-phenyl]acetamide], the IC50 in assay [1] and in assay [2] was 0.0001 to 10 µM in each case.

`Cn1cnc(Nc2ncc(-c3ccc(CC(=O)Nc4cc(C(F)(F)F)ccn4)cc3)cn2)c1` [Compound P-0022, 2-[4-[2-[(1-methylimidazol-4-yl)amino]pyrimidin-5-yl]phenyl]-N-[4-(trifluoromethyl)-2-pyridyl]acetamide]: the half-maximal inhibitory concentration (IC50) in assay [1] and in assay [2] was 0.0001 to 10 µM each time.

Regarding `O=C(Cc1ccc(-c2cnc(Nc3cnn(C4CC4)c3)nc2)cc1)Nc1cc(C(F)(F)F)ccn1` [Compound P-0237, 2-[4-[2-[(1-cyclopropylpyrazol-4-yl)amino]pyrimidin-5-yl]phenyl]-N-[4-(trifluoromethyl)-2-pyridyl]acetamide], the IC50 in assay [1] and in assay [2] was 0.0001 to 10 µM in each case.

Take `CCn1cc(Nc2ncc(-c3ccc(CC(=O)Nc4cnc(OC)c(C(F)(F)F)c4)cc3)cn2)cn1` [Compound P-0253, 2-[4-[2-[(1-ethylpyrazol-4-yl)amino]pyrimidin-5-yl]phenyl]-N-[6-methoxy-5-(trifluoromethyl)-3-pyridyl]acetamide]: the IC50 in assay [1] and in assay [2] was 0.0001 to 10 µM throughout.

Regarding `CCn1cc(Nc2ncc(-c3ccc(CC(=O)Nc4ccc(C(F)(F)F)cn4)c(F)c3)cn2)cn1` [Compound P-0256, 2-[4-[2-[(1-ethylpyrazol-4-yl)amino]pyrimidin-5-yl]-2-fluoro-phenyl]-N-[5-(trifluoromethyl)-2-pyridyl]acetamide], the IC50 in assay [1] and in assay [2] was 0.0001 to 10 µM throughout.

On to `COc1ncc(NC(=O)Cc2ccc(-c3cnc(Nc4cnn(C5CC5)c4)nc3)cc2F)cc1C(F)(F)F` [Compound P-0241, 2-[4-[2-[(1-cyclopropylpyrazol-4-yl)amino]pyrimidin-5-yl]-2-fluoro-phenyl]-N-[6-methoxy-5-(trifluoromethyl)-3-pyridyl]acetamide], for which the IC50 in assay [1] and in assay [2] was 0.0001 to 10 µM in each case.

With `COc1ncc(NC(=O)Cc2ccc(-c3cnc(Nc4cn[nH]c4C)nc3)cc2)cc1C(F)(F)F` [Compound P-0221, N-[6-methoxy-5-(trifluoromethyl)-3-pyridyl]-2-[4-[2-[(5-methyl-1H-pyrazol-4-yl)amino]pyrimidin-5-yl]phenyl]acetamide], the IC50 in assay [1] and in assay [2] was 0.0001 to 10 µM throughout.

Consider `Cc1nn(C)cc1Nc1ncc(-c2ccc(CC(=O)Nc3cnc(C)c(C(F)(F)F)c3)cc2)cn1` [Compound P-0228, 2-[4-[2-[(1,3-dimethylpyrazol-4-yl)amino]pyrimidin-5-yl]phenyl]-N-[6-methyl-5-(trifluoromethyl)-3-pyridyl]acetamide], for which the IC50 in assay [1] and in assay [2] was 0.0001 to 10 µM each time.

In the case of `CCn1cc(Nc2ncc(-c3ccc(CC(=O)Nc4cnc(C)c(C(F)(F)F)c4)c(F)c3)cn2)cn1` [Compound P-0261, 2-[4-[2-[(1-ethylpyrazol-4-yl)amino]pyrimidin-5-yl]-2-fluoro-phenyl]-N-[6-methyl-5-(trifluoromethyl)-3-pyridyl]acetamide], the IC50 in assay [1] and in assay [2] was 0.0001 to 10 µM in each case.

For `COc1ncc(NC(=O)Cc2ccc(-c3cnc4[nH]nc(C5CC5)c4c3)cc2F)cc1C(F)(F)F` [Compound P-0262, 2-[4-(3-cyclopropyl-1H-pyrazolo[3,4-b]pyridin-5-yl)-2-fluoro-phenyl]-N-[6-methoxy-5-(trifluoromethyl)-3-pyridyl]acetamide], the IC50 in assay [1] and in assay [2] was 0.0001 to 10 µM in each case.

As for `Cn1cc(Nc2ncc(-c3cc(F)c(CC(=O)Nc4cncc(C(F)(F)F)c4)cc3F)cn2)cn1` [Compound P-0207, 2-[2,5-difluoro-4-[2-[(1-methylpyrazol-4-yl)amino]pyrimidin-5-yl]phenyl]-N-[5-(trifluoromethyl)-3-pyridyl]acetamide], the IC50 in assay [1] and in assay [2] was 0.0001 to 10 µM in each case.

For the compound `COc1n[nH]c2ncc(-c3ccc(CC(=O)Nc4cnc(C)c(C(F)(F)F)c4)cc3)cc12` [Compound P-0218, 2-[4-(3-methoxy-1H-pyrazolo[3,4-b]pyridin-5-yl)phenyl]-N-[6-methyl-5-(trifluoromethyl)-3-pyridyl]acetamide], the IC50 in assay [1] and in assay [2] was 0.0001 to 10 µM each time.

With `CCn1cc(Nc2ncc(-c3ccc(CC(=O)Nc4cncc(C(F)(F)F)c4)c(F)c3)cn2)cn1` [Compound P-0258, 2-[4-[2-[(1-ethylpyrazol-4-yl)amino]pyrimidin-5-yl]-2-fluoro-phenyl]-N-[5-(trifluoromethyl)-3-pyridyl]acetamide], the IC50 in assay [1] and in assay [2] was 0.0001 to 10 µM throughout.
